One experiment concerns the target T1, β1 receptors (Rattus norvegicus, UniProt P18090).
T1 construct: from tissue; host or cells: Wistar rat heart (ventricle) membranes
Nature of the experiment: [3H]CGP-12177 receptor binding in rat ventricle. More on the design: species or system Wistar rat. The conditions noted are these: [3H]CGP-12177, rat ventricle. The procedure:
(§1) The homogenate was pressure filtered through muslin. Filtrate was centrifuged at 1000 g for 10 min. […] Protein content was determined by Bradford's method.

Experiment [1] concerns phenylephrine-induced contractions in rat thoracic aorta. Nature of the experiment: LPS-induced vascular hyporeactivity: phenylephrine-induced contractions in rat thoracic aorta. The conditions noted are these: for pD2 at 3rd hr / pD2 at 5th hr: pD2 to phenylephrine. The format is in vivo, Wistar rat.
In experiment [2] the target is T2, 5-HT2A receptor (Rattus norvegicus, UniProt P14842). As to the kind of experiment: [3H]ketanserin receptor binding in rat cortex. Also on record: from tissue; host or cells: Wistar rat cortex membranes; species or system Wistar rat. The procedure: as §1
T2 sequence (P14842 whole entry): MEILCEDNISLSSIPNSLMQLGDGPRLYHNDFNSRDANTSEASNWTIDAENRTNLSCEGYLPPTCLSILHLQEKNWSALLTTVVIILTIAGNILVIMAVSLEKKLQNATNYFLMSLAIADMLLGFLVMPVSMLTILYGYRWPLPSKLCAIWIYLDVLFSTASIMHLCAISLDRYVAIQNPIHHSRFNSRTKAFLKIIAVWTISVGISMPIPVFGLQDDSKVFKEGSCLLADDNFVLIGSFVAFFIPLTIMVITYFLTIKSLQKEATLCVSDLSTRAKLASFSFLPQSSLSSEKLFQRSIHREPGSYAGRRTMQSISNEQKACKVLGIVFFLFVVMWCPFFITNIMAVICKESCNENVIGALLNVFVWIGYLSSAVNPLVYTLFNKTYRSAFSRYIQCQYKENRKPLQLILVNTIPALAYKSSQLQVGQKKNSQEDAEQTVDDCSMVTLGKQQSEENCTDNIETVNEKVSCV
The next experiment addresses α2 receptors. Nature of the experiment: [3H]yohimbine receptor binding in rat cortex. More on the design: species or system Wistar rat. The method, then:
as §1

Another experiment has as its system α2-adrenergic receptor. As to the kind of experiment: clonidine-induced contraction in isolated rat thoracic aorta (pA2). The conditions noted are these: Schild plot, mean ± SEM of eight, listed as KMST. More on the design: species or system Wistar rat. The procedure: (§2) Clonidine, noradrenaline and serotonin (10^−8˜10^−4 M) were added to the bath to induce contractions after pretreatment with KMST for 15 min.

Experiment [3] deals with anesthetized rats. As to the kind of experiment: LPS-induced hypotension. The format is in vivo, Wistar rat. The conditions noted are these: pretreatment, intravenous LPS. The procedure: (§3) In brief, Wistar rats weighing 250-300 g were anesthetized with pentobarbital sodium (50 mg kg^−1, i.p.). Following tracheal cannulation, systemic arterial BP and HR were recorded from the femoral artery by a pressure transducer (model P10EZ; Spectramed, Oxnard, Calif., U.S.A.) connected to a recorder (GOULD, Valley View, Ohio, Model P50). Body temperature was maintained at 37° C. by an electric heating pad. A femoral vein was cannulated for intravenous injection of drugs and LPS (10 mg kg^−1).

A further experiment concerns α1-adrenergic receptor. Nature of the experiment: noradrenaline-induced contraction in isolated rat thoracic aorta (pA2). More on the design: species or system Wistar rat. The conditions noted are these: Schild plot, mean ± SEM of eight, listed as KMST. The method, then:
as §2

The next experiment has as its target α1 receptors. Nature of the experiment: [3H]prazosin receptor binding in rat cortex. Also on record: species or system Wistar rat. The method, then:
as §1

A further experiment concerns the target T3, 5-HT1B (Rattus norvegicus, UniProt P28564).
T3 construct: from tissue; host or cells: Wistar rat cortex membranes
Nature of the experiment: [3H]GR125743 receptor binding in rat cortex. Also on record: species or system Wistar rat. The conditions noted are these: [3H]GR125743 (5-HT1B/1D), rat cortex; read-out: Ki 5-HT1B. The procedure:
as §1

For experiment [4], the target named is T2, 5-HT2A receptor. As to the kind of experiment: 5-HT-induced contraction in isolated rat thoracic aorta (pA2). More on the design: Rat thoracic aorta was removed, cleaned of adhering fat and connective tissue; from tissue; host or cells: Wistar rat thoracic aorta rings; species or system Wistar rat. The conditions noted are these: Schild plot, mean ± SEM of eight, listed as KMST. The procedure: as §2

The target in the next experiment is T4, β2 receptors (Rattus norvegicus, UniProt P10608).
T4 construct: from tissue; host or cells: Wistar rat lung membranes
T4 sequence (P10608 whole entry): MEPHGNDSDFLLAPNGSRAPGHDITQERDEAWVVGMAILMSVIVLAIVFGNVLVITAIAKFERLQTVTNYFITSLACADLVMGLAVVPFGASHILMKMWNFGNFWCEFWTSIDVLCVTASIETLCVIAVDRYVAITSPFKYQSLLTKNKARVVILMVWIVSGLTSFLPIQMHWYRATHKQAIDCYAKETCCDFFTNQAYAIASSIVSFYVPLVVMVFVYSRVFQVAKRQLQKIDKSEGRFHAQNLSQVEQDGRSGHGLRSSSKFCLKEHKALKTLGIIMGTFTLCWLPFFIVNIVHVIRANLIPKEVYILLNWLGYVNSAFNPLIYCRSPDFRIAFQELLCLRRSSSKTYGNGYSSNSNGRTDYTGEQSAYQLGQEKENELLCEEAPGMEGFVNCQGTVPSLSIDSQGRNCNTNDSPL
As to the kind of experiment: [3H]CGP-12177 receptor binding in rat lung. More on the design: species or system Wistar rat. The conditions noted are these: [3H]CGP-12177, rat lung. The procedure: as §1

Experiment [5] concerns anesthetized rats. Nature of the experiment: intra-cisternal injection and NTS microinjection, BP and HR. It is filed as in vivo, rat. The procedure: Intra-cisternal injections of KMST (0.3, 0.03 μmol), yohimbine [0.03 μmol), and clonidine (38 pmol), were performed in rats as described by Duan et al (1987). Briefly, rats weighing 250-300 g were anaesthetized with pentobarbital sodium (50 mg kg^−1, i.p.) and mounted in a David-Kopf stereotaxic instrument (Yeh J L. et al., Brain. Res. Bull., 30:641-648, 1993). The calvarium was exposed and a 1 mm diameter trephine hole was drilled 1.8 mm lateral to the coronary and 1.5 mm posterior to the sagittal sutures. A cannula (0.7 mm O.D.) connected to a Hamilton syringe (RN-705, 5051) by PE-50 was advanced 4.7 mm into the brain using the electrode carrier.
Rats were anesthetized and placed in a David-Kopf stereotaxic instrument. The cerebellum was exposed after removing the skin and occipital bone. The NTS coordinates were (reference to lambda) P 5-6 mm, L/R 0.5-1 mm, depth 6-7.5 mm (Wu et al., 1994). NTS injection sites were confirmed by decreasing BP and HR following micro-injection of 1% L-glutamate. […] Pre-treatment with clonidine was performed 15 min before administration of test agents. At the end of experiments, the animals were sacrificed. The brain was removed and sectioned for histological confirmation of the drug application site.

For another experiment, the target named is M2. Nature of the experiment: M2 receptor binding. Also on record: species or system guinea pig.
Experiment [6] has as its system IL-1β, IL-6, IFN-γ and TNF-α. As to the kind of experiment: LPS-induced plasma cytokine immunoreactivity. It is filed as in vivo, rat. The conditions noted are these: 1 mg kg−1, i.v., pretreatment. The procedure: as §3
Blood was collected from venous cannula, injected into ice-cold heparinized Eppendorf tubes and centrifuged at 1500 rpm for 10 min at 4° C. Plasma supernatant was stored at −70° C. until analyzed. Solid phase enzyme immunoassay that specifically detects murine IL-1β, IL-6, IFN-γ and TNF-α was used with a detection limit of >10 pg/ml (Endogen, U.S.A). Pre-treatment with KMST and other agents was performed 15 minutes before intravenous injection of LPS. Blood was collected from venous cannula. Blood glucose was measured with a glucose test strip (Glucotide, Bayer, U.S.A) at 1, 3 and 5 hours.

[7] abbreviates: agent given after LPS injection (1 hr).
The mark [8] stands for this setting: agent given before LPS injection (30 min).

“Also recorded” adds a separate entry of the source. Like-named read-outs stand apart in the source and are kept apart here.

T1 sequence (P18090 whole entry): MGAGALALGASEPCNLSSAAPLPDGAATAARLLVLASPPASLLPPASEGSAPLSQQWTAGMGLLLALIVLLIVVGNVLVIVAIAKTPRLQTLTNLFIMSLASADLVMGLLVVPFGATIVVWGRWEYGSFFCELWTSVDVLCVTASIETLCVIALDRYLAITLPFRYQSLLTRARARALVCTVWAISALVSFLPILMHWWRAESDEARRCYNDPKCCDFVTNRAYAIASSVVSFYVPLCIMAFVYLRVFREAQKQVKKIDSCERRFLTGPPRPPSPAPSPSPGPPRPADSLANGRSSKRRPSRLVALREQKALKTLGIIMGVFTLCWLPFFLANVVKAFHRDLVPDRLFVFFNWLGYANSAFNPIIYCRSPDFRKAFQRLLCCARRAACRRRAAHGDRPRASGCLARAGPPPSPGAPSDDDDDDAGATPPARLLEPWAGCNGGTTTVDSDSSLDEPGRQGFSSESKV
T3 sequence (P28564 whole entry): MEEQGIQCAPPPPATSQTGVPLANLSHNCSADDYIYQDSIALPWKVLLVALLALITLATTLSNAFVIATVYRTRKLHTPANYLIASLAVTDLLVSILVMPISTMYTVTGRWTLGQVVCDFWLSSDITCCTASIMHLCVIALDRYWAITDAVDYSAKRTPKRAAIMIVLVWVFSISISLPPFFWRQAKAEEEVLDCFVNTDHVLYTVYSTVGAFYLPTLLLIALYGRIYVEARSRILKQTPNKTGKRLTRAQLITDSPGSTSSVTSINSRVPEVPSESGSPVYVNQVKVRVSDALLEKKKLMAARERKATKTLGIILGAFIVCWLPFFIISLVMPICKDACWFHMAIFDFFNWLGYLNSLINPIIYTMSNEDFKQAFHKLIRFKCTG

As to `CC=Cc1ccc(OCC(O)CN2CCN(c3cccc(Cl)c3)CC2)c(OC)c1` (stereo not shown) [Compound 1], the Ki (usually the equilibrium dissociation constant of an inhibitor or competing ligand from its target) amounted to 72.8 nM on β1 receptors; 33.3 nM at 5-HT2A receptor [2]; 1840 nM on α2 receptors; 1390 nM at α2 receptors (listed as KMST); 142 nM on α1 receptors; 670 nM at 5-HT1B. Also, the Ki at β2 receptors and at M2 was > 10 µM each time. Further, the “aortic contractility of LPS-treated rats versus vehicle group” value in [1] (1 mg kg−1 i.v. before or after application of LPS, listed as KMST) is “improved the aortic contractility better than in vehicle group; also recorded: increased aortic contractility more than the vehicle group”. In addition, the “pD2 at 3rd hr” value in experiment [1] (setting [7]) is listed as 6.29 ± 0.08; in experiment [1] (setting [8]), 7.16 ± 0.18. The “pD2 at 5th hr” value in [1] (setting [7]) is 5.57 ± 0.17; in [1] (setting [8]), 6.29 ± 0.11. In the experiment on α2-adrenergic receptor, the “α2 pA2 value” is given as 7.40±0.38. Also, the “aortic hyporeactivity and second prolonged hypotensive reaction induced by LPS” value in the experiment on anesthetized rats [3] is listed as “inhibited”. The “α1 pA2 value” with α1-adrenergic receptor was 7.97±0.39. In addition, the “5-HT2A pA2 value” on 5-HT2A receptor [4] is listed as 8.68±0.12. For the same compound, in the experiment with anesthetized rats [5] (central administration), the “BP and HR after intra-cisternal injection and NTS microinjection” value is “increased BP and HR”. In the experiment on anesthetized rats [5] (high dose (0.3 μmol)), the “clonidine-induced hypotension and bradycardia” value is listed as “reduced both”. Besides, the clonidine-induced bradycardia result in the experiment with anesthetized rats [5] (low dose (0.03 μmol)) is “did not inhibit”. The clonidine-induced hypotension result in the experiment on anesthetized rats [5] (low dose (0.03 μmol)) is on record as “reduced”. In addition, in experiment [6], the “LPS-induced elevations of IL-1β, IL-6, IFN-γ and TNF-α levels” value is “inhibited”.

The record behind these values is US6887878B2, “KMST isoeugenol derivatives and pharmaceutical activity” (Ing-Jun Chen, priority 2003, dated 2005).
